Measured values as given in patent US5925528A, “Murine cell lines which over produce acidic fibroblast growth factor (aFGF) and method of using same” (Ohio State University Research Foundation, priority 1997, dated 1999).
“Also recorded” adds a separate entry of the source.

Tests used:
[1] = test system: sense transfectants (Tr31-5-1, Tr33-1-2, Tr34-4-1 and Tr34-1-1); assay: Mitogenic response ([3H]thymidine) of sense transfectants compared with parental NIH/3T3 cells; format: cell-based, mouse
Method: (§1) FIG. 12 is a graph showing the mitogenic effects of different growth factors to various transfected cell lines. Cells were grown to confluence, changed to Dulbecco's modified Eagle medium containing 0.5% calf serum and grown for two more days. Different growth factors or calf serum was then added to the medium to stimulate cells to grow. [^3 H]thymidine was added 18 hours after addition of the mitogens and cells were incubated for another 6 hours. Bovine aFGF (b-aFGF) represents the truncated forms while human aFGF purified from Tr31-5-1 (rh-aFGF) represents the full-length protein. Cell lines, Tr31-5-1, 33-1-2, 34-1-1, and 34-4-1 are NIH/3T3 derivatives containing the aFGF cDNA construct in the positive orientation; whereas Tr31-11-1 contains aFGF cDNA in the anti-sense orientation.
(§2) Cells transfected with the EDNA coding for the full-length human aFGF were compared with the parental NIH/3T3 cells by determining their responses to various mitogens. […] Therefore, the lack of mitogenic response of Tr31-5-1 and Tr33-1-2 to rh-aFGF is not likely due to the trivial explanation of a defective mitogen. Thus, Tr31-5-1 and Tr33-1-2 may have lost some component of the pathway and these cell lines provide a unique means for elucidating the components responsive to the full-length aFGF.

newt KGFR [2] = assay: Binding assay (Scatchard plot) using KPTr2-2 cells and 125I-aFGF; set-up: species or system newt (Notophthalamus viridescens); settings: KPTr2-2 cells, read-out: Kd of newt KGFR toward human aFGF
Text: (§3) Binding assays using KPTr2-2 and ^125 I-aFGF have been carried out. […] The Kd is slightly higher than the typical sub-nM range of mammalian KGFR. However, this may reflect the species difference since we used a human ligand for the newt receptor.

Tr31-5-1 cells = assay: Mitogenic response ([3H]thymidine) of Tr31-5-1 cells; format: cell-based, mouse; settings: listed as full-length aFGF
Method: as §1, §2

Tr33-1-2 cells = assay: Mitogenic response ([3H]thymidine) of Tr33-1-2 cells; format: cell-based, mouse; settings: listed as full-length aFGF
Method: as §1, §2

NIH/3T3 cells = assay: Mitogenic response ([3H]thymidine) of NIH/3T3 cells; format: cell-based, mouse
Method: as §1, §2

Swiss/3T3 cells = assay: Mitogenic response ([3H]thymidine) of Swiss/3T3 cells; format: cell-based
newt KGFR [3] = assay: Competition assay using KPTr2-2 and 125I-aFGF; format: binding, newt (Notophthalamus viridescens); settings: KPTr2-2 cells, compared with aFGF
Text: as §3

newt KGFR [4] = assay: Crosslinking of 125I-aFGF to CHO-K1 cells over-expressing newt KGFR (KPTr2-2), competition with excess cold ligand; format: binding, newt (Notophthalamus viridescens); settings: 500-fold molar excess of cold ligand, KPTr2-2 cells
Method: CHO cells transfected with pBJ5 vector (lane 1) or with newt KGFR expression vector (lanes 2-4) were crosslinked with ^125 I-aFGF using 0.3 mM disuccinimidyl suberate (DSS). Excess amounts (500-fold) of aFGF (lane 3) or KGF (lane 4) were used to compete with ^125 I-aFGF. Crosslinked products were analyzed on a 7.5% SDS-polyacrylamide gel.
To characterize the newt FGFR EDNA functionally, the newt KGFR were expressed in CHO-K1 cells. The mammalian expression vector, pBJ5, which contains a chimeric promoter derived from HTLV-I and SV40, was used to express the newt KGFR and FGFR2 cDNA. […] The crosslinked product is absent in KPTr1-8, the CHO cells that were transfected with the pBJ5 vector alone. The crosslinked product thus appears to be specific. Similarly, a cell line over-expressing the human KGFR (T-1063-29-2 from S. A. Aaronson, NIH) was able to produce a somewhat smaller crosslinked product than the newt KGFR. Antibodies (both monoclonal and polyclonal) directed against a peptide from the carboxyl terminus of the newt FGFR2 are generated.

Q: Which “mitogenic response relative to parental NIH/3T3 cells” value ([1]; sense transfectants Tr31-5-1, Tr33-1-2, Tr34-4-1 and Tr34-1-1) does the source give for PDGF [reference compound] here?
A: stronger mitogenic responses than NIH/3T3 cells

Q: What does the source list for “human aFGF: human aFGF purified from Tr31-5-1 (rh-aFGF) represents the full-length protein”?
A: Kd (newt KGFR [2]): 1.3 nM; mitogenic response (Tr31-5-1 cells): failed to give any mitogenic responses; also recorded: do not respond; mitogenic response (Tr33-1-2 cells): failed to give any mitogenic responses; also recorded: do not respond; mitogenic response (NIH/3T3 cells): responded to the mitogenic stimulation; mitogenic response (Swiss/3T3 cells): responded to the mitogenic stimulation; mitogenic response relative to parental NIH/3T3 cells ([1]; sense transfectants with the exception of Tr33-1-2): respond less strongly than the parental NIH/3T3 cells

Q: How did the “competition with 125I-aFGF” value (newt KGFR [3]) turn out when “human recombinant bFGF: human recombinant basic fibroblast growth factor” was run?
A: does not compete as well as aFGF

B1: human recombinant KGF: human recombinant keratinocyte growth factor (protein, UniProt P21781 32-194, looked up)
Fibroblast growth factor 7: CNDMTPEQMATNVNCSSPERHTRSYDYMEGGDIRVRRLFCRTQWYLRIDKRGKVKGTQEMKNNYNIMEIRTVAVGIVAIKGVESEFYLAMNKEGKLYAKKECNEDCNFKELILENHYNTYASAKWTHNGGEMFVALNQKGIPVRGKKTKKEQKTAHFLPMAIT
Q: B1 was tested. Which “competition of the 150 kDa crosslinked product” value (newt KGFR [4]) did it give?
A: successfully competed off
